Measurements published in ChEMBL document CHEMBL1143900, “Tetrazole-biarylpyrazole derivatives as cannabinoid CB1 receptor antagonists” (Bioorg Med Chem Lett, 2008).

Assays:
Cannabinoid receptor 1 = Cannabinoid receptor 1 (Rattus norvegicus, UniProt P20272); assay: Inhibition of cannabinoid CB1 receptor in Sprague-Dawley rat brain
Cannabinoid receptor 2 = Cannabinoid receptor 2 (Homo sapiens, UniProt P34972); assay: Displacement of [3H]WIN-55212-2 from human cannabinoid CB2 receptor expressed in CHO cells; assay type: cell-based
Sequence of Cannabinoid receptor 2 (P34972 whole entry): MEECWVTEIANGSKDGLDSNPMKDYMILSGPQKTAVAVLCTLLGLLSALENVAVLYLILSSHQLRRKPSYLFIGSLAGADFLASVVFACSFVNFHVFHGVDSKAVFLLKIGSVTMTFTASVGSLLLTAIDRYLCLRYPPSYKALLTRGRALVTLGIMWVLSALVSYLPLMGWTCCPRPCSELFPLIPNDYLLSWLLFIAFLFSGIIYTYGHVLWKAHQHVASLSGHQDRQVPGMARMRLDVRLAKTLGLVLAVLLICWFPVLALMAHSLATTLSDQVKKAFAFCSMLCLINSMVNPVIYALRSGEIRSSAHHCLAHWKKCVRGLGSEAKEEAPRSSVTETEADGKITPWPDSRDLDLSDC

[1] = Selectivity ratio of IC50 for Sprague-Dawley rat CB1 receptor over IC50 for human CB2 receptor

Sequence of Cannabinoid receptor 1 (P20272 whole entry): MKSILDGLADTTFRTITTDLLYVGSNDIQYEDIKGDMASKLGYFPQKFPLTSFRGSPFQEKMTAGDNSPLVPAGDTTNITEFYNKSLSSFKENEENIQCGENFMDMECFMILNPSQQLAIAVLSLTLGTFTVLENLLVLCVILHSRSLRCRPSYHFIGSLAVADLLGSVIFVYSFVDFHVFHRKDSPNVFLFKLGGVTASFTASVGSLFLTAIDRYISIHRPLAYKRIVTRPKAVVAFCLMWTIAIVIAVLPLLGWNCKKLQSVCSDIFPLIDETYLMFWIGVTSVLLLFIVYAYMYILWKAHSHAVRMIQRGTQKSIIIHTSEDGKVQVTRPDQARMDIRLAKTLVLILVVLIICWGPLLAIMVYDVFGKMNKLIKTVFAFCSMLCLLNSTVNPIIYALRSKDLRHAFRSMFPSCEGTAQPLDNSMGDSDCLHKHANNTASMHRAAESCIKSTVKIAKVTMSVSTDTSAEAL

Compound | IC50 (Cannabinoid receptor 1) [nM] | IC50 (Cannabinoid receptor 2) [nM] | Ratio IC50 [1]
Cc1c(-c2nnn(C)n2)nn(-c2ccc(Cl)cc2Cl)c1-c1ccc(Cl)cc1 | > 1000 | – | –
Cc1c(-c2nnnn2C)nn(-c2ccc(Cl)cc2Cl)c1-c1ccc(Cl)cc1 | 1060 | – | –
Cc1c(-c2nnnn2C2CCCC2)nn(-c2ccc(Cl)cc2Cl)c1-c1ccc(Cl)cc1 | – | > 10000 | –
CCc1c(-c2nnnn2C2CCCC2)nn(-c2ccc(Cl)cc2Cl)c1-c1ccc(Br)cc1 | – | 1930 | –
CCCCn1nnnc1-c1nn(-c2ccc(Cl)cc2Cl)c(-c2ccc(Cl)cc2)c1C | 87.8 | – | –
CCCCn1nnc(-c2nn(-c3ccc(Cl)cc3Cl)c(-c3ccc(Cl)cc3)c2C)n1 | 87.7 | – | –
Cc1c(-c2nnnn2C2CCCCCC2)nn(-c2ccc(Cl)cc2Cl)c1-c1ccc(Cl)cc1 | 26.7 | 818 | –
CCCCCCCCn1nnnc1-c1nn(-c2ccc(Cl)cc2Cl)c(-c2ccc(Cl)cc2)c1C | 47.3 | – | –
CCn1nnc(-c2nn(-c3ccc(Cl)cc3Cl)c(-c3ccc(Cl)cc3)c2C)n1 | > 1000 | – | –
CCCCCCCCn1nnc(-c2nn(-c3ccc(Cl)cc3Cl)c(-c3ccc(Cl)cc3)c2C)n1 | 50.6 | – | –
Cc1c(-c2nnnn2Cc2ccccc2)nn(-c2ccc(Cl)cc2Cl)c1-c1ccc(Cl)cc1 | 94.3 | – | –
Cc1c(-c2nnnn2-c2ccccc2)nn(-c2ccc(Cl)cc2Cl)c1-c1ccc(Cl)cc1 | 33.8 | – | –
CCc1c(-c2nnnn2C2CCCC2)nn(-c2ccc(Cl)cc2Cl)c1-c1ccc(Cl)cc1 | – | 840 | –
Cc1c(-c2nnnn2C2CCCCCC2)nn(-c2ccc(Cl)cc2Cl)c1-c1ccc(Br)cc1 | – | > 10000 | –
Cc1c(-c2nnnn2C2CCCC2)nn(-c2ccc(Cl)cc2Cl)c1-c1ccc(Br)cc1 | – | 4240 | 366
Cc1c(-c2nnnn2C(C)(C)C)nn(-c2ccc(Cl)cc2Cl)c1-c1ccc(Cl)cc1 | 361 | – | –
